Reference: publication PMC6131501, “Urate transporter inhibitor lesinurad is a selective peroxisome proliferator-activated receptor gamma modulator (sPPARγM) in vitro” (Scientific Reports, 2018)
“Also recorded” adds a separate entry of the source.

How the values were obtained:
[1] = Aqueous solubility (noted for ITC); type: physicochemical
Text: To confirm direct modulation of PPARγ by lesinurad, we analyzed their interaction by isothermal titration calorimetry (ITC). Due to limited solubility of lesinurad, recombinant PPARγ ligand binding domain (LBD) protein was (reversely) titrated to the drug.

[2] = test system: PPARγ-regulated genes in 3T3-L1 adipocytes; experiment: PPARγ target gene quantification in 3T3-L1 adipocytes (qPCR); type: cell-based, murine; conditions: 3T3-L1 adipocytes, rosiglitazone 2 μM, 1 30 μM, mean ± SEM, n = 3
Method: 3T3-L1 cells were cultured and differentiated as described above. Cells were then lysed using TRIzol reagent (Ambion, Life Technologies, Carlsbad, CA, USA), and mRNA was isolated following the manufacturer’s protocol. DNA contaminations were digested using DNase (DNase I, RNase-free kit; Thermo Scientific, Waltham, MA, USA) and mRNA concentrations were measured with a NanoDrop2000 spectrophotometer (Thermo Scientific, Waltham, MA, USA). Subsequently, reverse transcription was performed using the high capacity RNA-to-cDNA kit (Applied Biosystems, Foster City, CA, USA). Quantitative real-time PCR was performed using specific primers for CD36, […] and CPT1A with a StepOnePlus real-time PCR system (Applied Biosystems, Foster City, CA, USA). Non-POU domain containing octamer binding protein (NonO) was used as reference gene for 3T3-L1. All samples were measured in duplicate and were analyzed using the ΔΔCt method. The following PCR primers were used: Adiponectin: 5′-TGACGACACCAAAAGGGCTC-3′ (fwd) and 5′-CACAAGTTCCCTTGGGTGGA-3′ (rev); CD36: 5′-TGCTGGAGCTGTTATTGGTG-3′ (fwd) and 5′-CATGAGAATGCCTCCAAACA-3′ (rev); FABP4: 5′-AGAAGTGGGAGTGGGCTTTG-3′ (fwd) and 5′-ACTCTCTGACCGGATGGTGA-3′ (rev); GLUT4: 5′-TGAAGAACGGATAGGGAGCAG-3′ (fwd) and 5′-GAAGTGCAAAGGGTGAGTGAG-3′ (rev); NonO: 5′-TGCTCCTGTGCCACCTGGTACTC-3′ (fwd) and 5′-CCGGAGCTGGACGGTTGAATGC-3′ (rev).
Results (expressed as mean ± SEM % relative mRNA expression; n = 3): Adiponectin: untreated (0.1% DMSO): 124 ± 45%; […];

[3] = test system: PPARγ-regulated genes in HepG2 cells; experiment: PPARγ target gene quantification in HepG2 cells (qPCR); type: cell-based, human; conditions: HepG2, 30 μM, 8 h; mean ± SEM, n = 4
Method: HepG2 cells were incubated with 1 (30 μM) or 0.1% DMSO as untreated control for 8 h, harvested, washed with cold phosphate-buffered saline (PBS) and then directly used for RNA extraction. 2 μg total RNA were extracted from HepG2 cells by the Total RNA Mini Kit (R6834-02, Omega Bio-Tek, Inc., Norcross, GA, USA). RNA was reverse-transcribed into cDNA using the High-Capacity cDNA Reverse Transcription Kit (4368814, Thermo Fischer Scientific, Inc.) according to the manufacturer’s protocol. PPARγ target gene expression was evaluated by quantitative real time PCR analysis with a StepOnePlus™ System (Life Technologies, Carlsbad, CA, USA) using Power SYBR Green (Life Technologies; 12.5 μL per well). Each sample was set up in duplicates and repeated in four independent experiments. The expression was quantified by the comparative ∆∆Ct method and glycerinaldehyde 3-phosphate dehydrogenase (GAPDH) served as reference gene. The following PCR primers were used: Adiponectin: 5′-TGGCTATGCTCACAGTCTCACATC-3′ (fwd) and 5′-CTCTGTGCCTCTGGTTCCACAA-3′ (rev); ANGPTL4: 5′-ATTCTTTCCAGCGGCTTCTG-3′ (fwd) and 5′-GAG GAC TGG AGA CGC GGA G-3′ (rev); CD36: 5′-GGC TGT GAC CGG AAC TGT G-3′ (fwd) and 5′-AGGTCTCCAACTGGCATTAGAA-3′ (rev); GAPDH: 5′-ATATGATTCCACCCATGGCA-3′ (fwd) and 5′-GATGATGACCCTTTTGGCTC-3′ (rev).
Results (expressed as mean ± SEM % relative mRNA expression to vehicle (0.1% DMSO); n = 4): Adiponectin: 1 (30 μM): 163 ± 41%; ANGPTL4: 1 (30 μM): 298 ± 49%; CD36: 1 (30 μM): 105 ± 16%.

3T3-L1 adipocytes = experiment: Differentiation of 3T3-L1 adipocytes, Oil Red O staining; type: cell-based, murine; conditions: rosiglitazone 2 μM; lesinurad up to 50 μM
Method: For this, 3T3-L1 cells were treated with insulin, dexamethasone and isobutylmethylxanthine (IBMX) to induce their differentiation into mature adipocytes. […] 3T3-L1 cells were subcultured in DMEM containing 10% newborn calf serum in a humidified atmosphere at 37 °C, 5% CO2. Cells were differentiated into adipocytes within 14 days according to the method[54] reported by Zebisch and colleagues. In brief, cells were seeded in 6-well plates ([…]). […] At day 5, medium was changed to contain only insulin for another two days. Cells were then kept for lipid droplet accumulation in basal medium without additions until day 15. […] Differentiation of 3T3-L1 cells to adipocytes was confirmed by Oil Red O staining. For this, cells were washed with PBS and then fixed for 60 min with a formaldehyde solution (4% in PBS). Subsequently, cells were rinsed with 60% isopropanol and incubated with Oil Red O solution (0.3%) for 120 min.

3T3-L1 cells = experiment: Cytotoxicity in adipocyte differentiation experiment; type: cell-based, murine; conditions: up to 50 μM (data not shown)
Method: For this, 3T3-L1 cells were treated with insulin, dexamethasone and isobutylmethylxanthine (IBMX) to induce their differentiation into mature adipocytes.

## O=C(O)CSc1nnc(Br)n1-c1ccc(C2CC2)c2ccccc12 [lesinurad]
[1]
  aqueous solubility: limited aqueous solubility
[2]; untreated 122 ± 43%
  CD36 relative mRNA expression: 205 ± 76%
[2]; untreated 124 ± 45%
  Adiponectin relative mRNA expression: 175 ± 63%
[2]; untreated 145 ± 61%
  GLUT4 relative mRNA expression: 128 ± 43%
[2]; untreated 161 ± 72%
  FABP4 relative mRNA expression: 151 ± 58%
[3]
  ANGPTL4 relative mRNA expression to vehicle: 298 ± 49%
  Adiponectin relative mRNA expression to vehicle: 163 ± 41%
  CD36 relative mRNA expression to vehicle: 105 ± 16%
3T3-L1 adipocytes
  lipid accumulation during differentiation (Oil Red O staining): lacked this adipogenic effect; also recorded: does not induce fat accumulation
3T3-L1 cells
  cytotoxicity: no cytotoxicity
